Data published in patent US20020111274A1, “1-alkyl-3-[1-(substituted phenyl) benzotriazol-6-yl] uracils” (BASF Aktiengesellschaft, priority 2000, published 2002).

How the values were obtained:
Parameters in all cases: scale not given here
Settings in all cases: preemergence
ABUTH Velvetleaf = assay: Preemergence herbicidal evaluation, ABUTH; format: in vivo, Abutilon theophrasti, Medic.
From the text: (§1) The preemergence herbicidal activity of the test compounds of the present invention is exemplified by the following tests in which the seeds of a variety of monocotyledonous and dicotyledonous plants are separately mixed with potting soil and planted on top of approximately one inch of soil in separate pint cups. […] The treated cups are then placed on greenhouse benches, watered and cared for in accordance with conventional greenhouse procedures. From four to five weeks after treatment, the tests are terminated and each cup is examined and rated according to the rating system provided in Example 46.

AMBEL Ragweed, Common = assay: Preemergence herbicidal evaluation, AMBEL; format: in vivo, Ambrosia artemisifolia, L.
From the text: as §1

CASOB Sicklepod = assay: Preemergence herbicidal evaluation, CASOB; format: in vivo, Cassia obtusifolia, L.
From the text: as §1

[1] = test system: CHEAL Lambsquarters, Common; assay: Preemergence herbicidal evaluation, CHEAL; format: in vivo, Chenopodium album, L.
From the text: as §1

ECHOG Barnyardgrass = assay: Preemergence herbicidal evaluation, ECHOG; format: in vivo, Echinochloa crus-galli, (L.) Beau
From the text: as §1

GALAP Galium = assay: Preemergence herbicidal evaluation, GALAP; format: in vivo, Galium aparine
From the text: as §1

[2] = test system: IPOHE Morningglory, Ivyleaf; assay: Preemergence herbicidal evaluation, IPOHE; format: in vivo, Ipomoea hederacea, (L.) Jacq.
From the text: as §1

SETVI Foxtail, Green = assay: Preemergence herbicidal evaluation, SETVI; format: in vivo, Setaria viridis, (L.) Beau
From the text: as §1

GLXMAW Soybean, Williams = assay: Preemergence herbicidal evaluation, GLXMAW; format: in vivo, Glycine max, (L.) Merr. cv Williams
From the text: as §1

[3] = test system: TRZAWR Wheat, Winter, cv Riband; assay: Preemergence herbicidal evaluation, TRZAWR; format: in vivo, Triticum aestivum
From the text: as §1

ORYSAT Rice, Tebonnet = assay: Preemergence herbicidal evaluation, ORYSAT; format: in vivo, Oryza sativa, (L.)
From the text: as §1

ZEAMX Corn, Field = assay: Preemergence herbicidal evaluation, ZEAMX; format: in vivo, Zea mays, L. (Sammel-Bezeichnung)
From the text: as §1

`C=CCOc1ccc(-n2nnc3cc(F)c(-n4c(=O)cc(C(F)(F)F)n(C)c4=O)cc32)c(C)c1` [Example 43] gave an ABUTH herbicidal rating (ABUTH Velvetleaf; rate 0.016 kg/ha) of 0.0, an ABUTH herbicidal rating (ABUTH Velvetleaf; rate 0.032 kg/ha) of 1.0 and an ABUTH herbicidal rating (ABUTH Velvetleaf; rate 0.062 kg/ha) of 9.0. It also gave an ABUTH herbicidal rating (ABUTH Velvetleaf; rate 0.125 kg/ha) of 8.0, an AMBEL herbicidal rating (AMBEL Ragweed, Common; rate 0.016 kg/ha) of 0.0 and an AMBEL herbicidal rating (AMBEL Ragweed, Common; rate 0.032 kg/ha) of 0.0. For the same molecule, the AMBEL herbicidal rating (AMBEL Ragweed, Common; rate 0.062 kg/ha) was 0.0, the AMBEL herbicidal rating (AMBEL Ragweed, Common; rate 0.125 kg/ha) was 0.0 and the CASOB herbicidal rating (CASOB Sicklepod; rate 0.016 kg/ha) was 0.0. The CASOB herbicidal rating (CASOB Sicklepod; rate 0.032 kg/ha) was 0.0, the CASOB herbicidal rating (CASOB Sicklepod; rate 0.062 kg/ha) was 0.0 and the CASOB herbicidal rating (CASOB Sicklepod; rate 0.125 kg/ha) was 0.0. It also gave a CHEAL herbicidal rating ([1]; rate 0.016 kg/ha) of 9.0, a CHEAL herbicidal rating ([1]; rate 0.032 kg/ha) of 9.0 and a CHEAL herbicidal rating ([1]; rate 0.062 kg/ha) of 9.0. For the same molecule, the CHEAL herbicidal rating ([1]; rate 0.125 kg/ha) was 9.0, the ECHCG herbicidal rating (ECHOG Barnyardgrass; rate 0.016 kg/ha) was 0.0 and the ECHCG herbicidal rating (ECHOG Barnyardgrass; rate 0.032 kg/ha) was 0.0. The ECHCG herbicidal rating (ECHOG Barnyardgrass; rate 0.062 kg/ha) was 0.0, the ECHCG herbicidal rating (ECHOG Barnyardgrass; rate 0.125 kg/ha) was 1.0 and the GALAP herbicidal rating (GALAP Galium; rate 0.016 kg/ha) was 0.0. For the same molecule, the GALAP herbicidal rating (GALAP Galium; rate 0.032 kg/ha) was 0.0, the GALAP herbicidal rating (GALAP Galium; rate 0.062 kg/ha) was 0.0 and the GALAP herbicidal rating (GALAP Galium; rate 0.125 kg/ha) was 0.0. For the same molecule, the IPOHE herbicidal rating ([2]; rate 0.016 kg/ha) was 0.0, the IPOHE herbicidal rating ([2]; rate 0.032 kg/ha) was 0.0 and the IPOHE herbicidal rating ([2]; rate 0.062 kg/ha) was 0.0. For the same molecule, the IPOHE herbicidal rating ([2]; rate 0.125 kg/ha) was 0.0, the SETVI herbicidal rating (SETVI Foxtail, Green; rate 0.016 kg/ha) was 0.0 and the SETVI herbicidal rating (SETVI Foxtail, Green; rate 0.032 kg/ha) was 1.0. The SETVI herbicidal rating (SETVI Foxtail, Green; rate 0.062 kg/ha) was 4.0, the SETVI herbicidal rating (SETVI Foxtail, Green; rate 0.125 kg/ha) was 7.0 and the GLXMAW herbicidal rating (GLXMAW Soybean, Williams; rate 0.016 kg/ha) was 1.0. The GLXMAW herbicidal rating (GLXMAW Soybean, Williams; rate 0.032 kg/ha) was 1.0, the GLXMAW herbicidal rating (GLXMAW Soybean, Williams; rate 0.062 kg/ha) was 0.0 and the GLXMAW herbicidal rating (GLXMAW Soybean, Williams; rate 0.125 kg/ha) was 1.0. For the same molecule, the TRZAWR herbicidal rating ([3]; rate 0.016 kg/ha) was 0.0, the TRZAWR herbicidal rating ([3]; rate 0.032 kg/ha) was 0.0 and the TRZAWR herbicidal rating ([3]; rate 0.062 kg/ha) was 0.0. It also gave a TRZAWR herbicidal rating ([3]; rate 0.125 kg/ha) of 1.0, an ORYSAT herbicidal rating (ORYSAT Rice, Tebonnet; rate 0.016 kg/ha) of 0.0 and an ORYSAT herbicidal rating (ORYSAT Rice, Tebonnet; rate 0.032 kg/ha) of 0.0. The ORYSAT herbicidal rating (ORYSAT Rice, Tebonnet; rate 0.062 kg/ha) was 0.0, the ORYSAT herbicidal rating (ORYSAT Rice, Tebonnet; rate 0.125 kg/ha) was 0.0 and the ZEAMX herbicidal rating (ZEAMX Corn, Field; rate 0.016 kg/ha) was 0.0. It also gave a ZEAMX herbicidal rating (ZEAMX Corn, Field; rate 0.032 kg/ha) of 0.0, a ZEAMX herbicidal rating (ZEAMX Corn, Field; rate 0.062 kg/ha) of 0.0 and a ZEAMX herbicidal rating (ZEAMX Corn, Field; rate 0.125 kg/ha) of 2.0.
